Data on three compounds can be found in patent US6469056B1, “Pharmaceutically active compounds, their preparation and use as ECE-inhibitors” (Abbott Laboratories, priority 1997, dated 2002).

Common to all, as to assay type: biochemical
Experiment [1] deals with T1, recombinant human ECE from CHO cells (Homo sapiens, UniProt P42892).
T1 construct: made in house; host or cells: CHO cells
T1 sequence (P42892 1-770): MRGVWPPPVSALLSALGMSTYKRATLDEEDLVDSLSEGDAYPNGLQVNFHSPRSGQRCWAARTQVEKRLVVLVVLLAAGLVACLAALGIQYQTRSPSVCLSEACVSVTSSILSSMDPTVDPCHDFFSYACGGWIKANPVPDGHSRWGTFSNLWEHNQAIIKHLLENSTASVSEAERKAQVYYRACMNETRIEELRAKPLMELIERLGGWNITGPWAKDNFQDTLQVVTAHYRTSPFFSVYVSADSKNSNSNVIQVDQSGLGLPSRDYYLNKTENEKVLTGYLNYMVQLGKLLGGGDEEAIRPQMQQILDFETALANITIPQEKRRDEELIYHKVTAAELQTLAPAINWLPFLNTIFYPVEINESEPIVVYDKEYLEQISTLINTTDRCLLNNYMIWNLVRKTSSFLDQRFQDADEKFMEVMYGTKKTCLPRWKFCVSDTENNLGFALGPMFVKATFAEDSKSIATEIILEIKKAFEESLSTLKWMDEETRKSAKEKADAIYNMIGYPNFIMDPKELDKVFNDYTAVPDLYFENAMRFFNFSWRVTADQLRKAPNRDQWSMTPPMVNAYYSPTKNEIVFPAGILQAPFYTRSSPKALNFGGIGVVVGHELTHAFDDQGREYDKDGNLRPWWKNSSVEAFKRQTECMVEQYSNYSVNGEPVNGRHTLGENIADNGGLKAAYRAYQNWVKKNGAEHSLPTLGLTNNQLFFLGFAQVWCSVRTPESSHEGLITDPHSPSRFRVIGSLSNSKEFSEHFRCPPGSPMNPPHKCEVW
Kind of experiment: ECE inhibitor test, IC50 determination (Big ET1 cleavage, HPLC). Conditions: Big ET1 substrate, 1 hour at 37° C., pH 7.2. The method, then: ECE Inhibitor Tests, IC50 Determinations
Inhibitors of endothelin converting enzyme (ECE) were tested using recombinant human ECE from CHO cells as described in Schmidt et al. (FEBS Letters 356, 1994: 238-243).
The enzyme preparations employed were, after membrane isolation and solubilization, further purified by Mono-Q chromatography and WGA lectin chromatography. The preparations obtained in this way contained no interfering foreign protease activities and had specific activities in the range 1-20 mU/mg. 5 μl of this enzyme solution were preincubated with 495 μl of test buffer (100 mM Pi, 500 mM NaCl, 0,1 mg/ml BSA pH 7.2) and with in each case 5 μl of appropriately concentrated solutions (10^−3 M, 10^−4 M, 10^−5 M etc.) of the inhibitors in the test buffer for 10 minutes. 50 μl aliquots were mixed with 5 μl of 2×10^−3 M Big ET1 solution (=Big Endothelin1) in 0.02% acetic acid. The mixtures were stopped after 1 hour at 37° C. by adding 150 μl of 0.5% TFA (=trifluoroacetic acid) in water, and centrifuged at 10000×g for 5 minutes, and the enzyme reaction was determined by measuring the endothelin formed by means of reversed phase HPLC as described in Takada et al. (Biochem. Biophys. Res. Comm. 176, 1991, 860), K. Ohnaka et al. (Biochem. Biophys. Res. Commun. 168, 1990, 1128). An inhibition plot was produced from the values of the inhibition at the various inhibitor concentrations, and the half-maximum inhibition (IC50) was read off as a measure of the strength of the inhibitory effect.

Experiment [2] has as its target ACE (angiotensin converting enzyme) (Homo sapiens, UniProt P12821). Put plainly: ACE inhibition.
Experiment [3] addresses NEP 24.11 (neutral endopeptidase 24.11) (Homo sapiens, UniProt P08473). Put plainly: NEP 24.11 inhibition.

Chain of NEP 24.11 (neutral endopeptidase 24.11) (P08473 whole entry, species assumed): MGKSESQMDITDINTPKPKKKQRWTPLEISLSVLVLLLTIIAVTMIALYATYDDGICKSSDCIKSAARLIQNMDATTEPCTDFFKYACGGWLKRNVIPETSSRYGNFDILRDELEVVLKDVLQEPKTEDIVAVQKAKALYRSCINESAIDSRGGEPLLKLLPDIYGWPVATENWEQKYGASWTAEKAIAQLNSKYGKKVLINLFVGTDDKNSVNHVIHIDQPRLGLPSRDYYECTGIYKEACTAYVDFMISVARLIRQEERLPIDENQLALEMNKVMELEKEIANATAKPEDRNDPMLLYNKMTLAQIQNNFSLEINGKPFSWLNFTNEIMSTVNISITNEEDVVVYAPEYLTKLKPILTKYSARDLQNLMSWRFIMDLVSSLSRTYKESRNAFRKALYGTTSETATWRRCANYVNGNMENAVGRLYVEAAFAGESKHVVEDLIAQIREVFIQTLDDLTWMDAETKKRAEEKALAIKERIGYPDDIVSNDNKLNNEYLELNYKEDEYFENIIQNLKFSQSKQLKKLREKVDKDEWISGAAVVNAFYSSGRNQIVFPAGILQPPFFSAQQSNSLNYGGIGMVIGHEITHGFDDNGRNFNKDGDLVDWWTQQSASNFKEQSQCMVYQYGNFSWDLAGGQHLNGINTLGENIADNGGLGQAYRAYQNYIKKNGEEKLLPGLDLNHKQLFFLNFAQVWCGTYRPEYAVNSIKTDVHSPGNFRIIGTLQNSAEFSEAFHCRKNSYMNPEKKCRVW
Chain of ACE (angiotensin converting enzyme) (P12821 30-1306, species assumed): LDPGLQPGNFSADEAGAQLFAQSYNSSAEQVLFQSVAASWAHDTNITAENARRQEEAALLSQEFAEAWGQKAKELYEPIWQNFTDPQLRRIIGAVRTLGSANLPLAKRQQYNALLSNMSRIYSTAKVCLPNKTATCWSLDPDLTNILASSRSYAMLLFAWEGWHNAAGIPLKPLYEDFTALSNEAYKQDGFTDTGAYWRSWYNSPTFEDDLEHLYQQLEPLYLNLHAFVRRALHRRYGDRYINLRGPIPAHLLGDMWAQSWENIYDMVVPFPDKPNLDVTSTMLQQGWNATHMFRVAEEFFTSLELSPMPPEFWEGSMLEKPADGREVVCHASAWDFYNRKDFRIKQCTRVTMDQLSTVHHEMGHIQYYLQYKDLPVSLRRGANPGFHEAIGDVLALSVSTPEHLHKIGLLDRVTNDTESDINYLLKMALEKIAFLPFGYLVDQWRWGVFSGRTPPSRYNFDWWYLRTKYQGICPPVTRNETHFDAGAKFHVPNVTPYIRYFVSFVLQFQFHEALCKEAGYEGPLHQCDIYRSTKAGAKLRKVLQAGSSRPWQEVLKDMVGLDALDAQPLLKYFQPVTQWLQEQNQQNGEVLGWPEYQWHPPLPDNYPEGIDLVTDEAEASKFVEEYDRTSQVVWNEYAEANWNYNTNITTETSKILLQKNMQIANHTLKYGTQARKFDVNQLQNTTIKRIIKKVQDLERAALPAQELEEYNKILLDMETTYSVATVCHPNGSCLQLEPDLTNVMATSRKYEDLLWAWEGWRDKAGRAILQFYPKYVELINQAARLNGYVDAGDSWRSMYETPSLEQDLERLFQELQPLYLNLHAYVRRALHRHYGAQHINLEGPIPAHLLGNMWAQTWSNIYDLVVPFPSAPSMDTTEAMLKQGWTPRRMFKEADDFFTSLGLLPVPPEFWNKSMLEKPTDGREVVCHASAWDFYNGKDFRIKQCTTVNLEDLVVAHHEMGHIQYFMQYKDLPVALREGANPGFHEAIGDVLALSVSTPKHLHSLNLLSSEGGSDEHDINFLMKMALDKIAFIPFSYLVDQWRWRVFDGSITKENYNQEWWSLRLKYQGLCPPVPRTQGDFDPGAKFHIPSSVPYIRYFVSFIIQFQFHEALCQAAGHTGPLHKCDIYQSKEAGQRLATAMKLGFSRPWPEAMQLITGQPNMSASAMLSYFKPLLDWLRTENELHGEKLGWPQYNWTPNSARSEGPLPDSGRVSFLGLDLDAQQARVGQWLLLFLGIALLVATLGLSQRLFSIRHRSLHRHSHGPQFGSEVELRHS

As for `O=C(N[C@@H](Cc1ccccc1)CN(C(=O)c1ccc(Cl)s1)[C@@H](Cc1ccccc1)C(=O)O)OCC1c2ccccc2-c2ccccc21` [Compound 1a], the concentration for half-maximal inhibition (IC50) in experiment [1] was 2 µM; in experiment [2], greater than 100 µM; in experiment [3] it was greater than 100 µM.

Consider `CC(C)(C)SSC[C@@H](CN(C(=O)c1ccc(Cl)s1)[C@@H](Cc1ccccc1)C(=O)O)NC(=O)OCC1c2ccccc2-c2ccccc21` [Compound 1b], for which the 50% inhibitory concentration (IC50) is 3 µM in experiment [1], greater than 100 µM in experiment [2] and greater than 100 µM in experiment [3].

`O=C(N[C@@H](Cc1ccccc1)CN(C(=O)c1ccc2ccccc2c1)[C@@H](Cc1ccccc1)C(=O)O)OCC1c2ccccc2-c2ccccc21` [Compound 1e]: the values for the IC50 in experiment [1], in experiment [2] and in experiment [3] were 4 µM, greater than 100 µM and greater than 100 µM, respectively.

A word on the IC50: it is the concentration that gives 50% inhibition.
